Read-outs that look alike come from different tables or passages of the source.
System: CR-N330K parasites
Test: Growth inhibition assay (72 h, LDH activity)
Assay type: cell-based, Plasmodium falciparum
Settings: for inhibition at 5 µM: 0.25 mM GlcN
Description: Parasite growth assays with inhibitory compounds were performed as per[11] and are fully described in the Supplementary Information.
Molecular biology and transfection of P. falciparum: CRISPR method.
The full 5’ homology region of pfstart1 (either WT, N309K or N330K) was amplified from pPfSTART1-HA-2A-Neo-glmS with the same 5’ BglII primer and a new 3’ primer that replaced with PstI with SpeI and introduced a stop codon. The PCR product was then digested with BglII and SpeI and inserted into similarly digested p1.2 parasite vector2. The p1.2 vector had previously been inserted with a homology region amplified from the 3’ end of the pfstart1 gene (3’HB) to form a second homology block for double recombination. The primers used to amplify 3’HB are listed primers listed in […]
60 μg of p1.2-PfSTART1(WT/N309K/N330K) plasmid was linearised with KasI, precipitated in 3 M sodium acetate and ethanol (70% final concentration) overnight at -20°C. The DNA pellet was washed in cold 70% ethanol and resuspended in cytomix 3.
50 μ M of crRNA ( Table S 2) and 50 μM of tracRNA (Integrated DNA Technologies) were allowed to form a duplex (5 min at 95°C), and Cas9 enzyme (Integrated DNA Technologies) was added, and incubated for 20 min at room temperature 4. This crRNA -tracRNA -Cas9 mix was added to each DNA preparation and transfected to 3D7 ring parasites using the Bio -Rad Gene Pulser at 310 V and 950 μF.
Parasites containing the transfected DNA were selected using 2.5 nM WR99210 (Jacobus). Parasites lines were cloned using limiting dilution. Correct integration was tested by PCR (using primer START_5’UTR.F and START_Int.R1 , Table S 2), and sequencing was done using the primers START_3F and START_Int.R2 (Table S 2).
Growth inhibition assays. Synchronised ring-stage parasites (0.3-0.6% parasitemia, 2% haematocrit) were grown for 72 h in a serial-dilution of the compound under […]
and compound 4. Note that M-833 was first purchased from MolPort (MolPort -002-267-916) then made in-house at WEHI: the differences observed in EC50s across experiments are attributed to the different batches of M -833. For some experiments, 0, 0.25 or 2.5 mM of glucosamine (GlcN) was also added. Experiments were set up in technical duplicates or triplicates. Following a freeze -thaw cycle, lactate dehydrogenase (LDH) activity was assessed as an indicator of parasite growt h 5. 30 μL of parasite culture was incubated for 30 min in the dark with 75 μL Malstat mixture (0.1 M Tris pH 9.0, 20 g/L lactic acid, pH 7.5, 0.2% Triton-X100, 0.5 g/L acetylpyridine adenine dinucleotide (APAD, Sigma), 200 μg/mL nitroblue tetrazolium (NBT; Sigma), 1 μg/mL phenozine ethosulfate (PES; Sigma)). Absorbance was then measured at 650 nm, transformed using the formula below, plotted against the logarithm of the concentrations, and a non-linear regression (log(inhibitor) vs. response, variable slope) was calculated using GraphPad Prism to assess the half-inhibitory […]
Growth inhibition % = (1 − average(sample)− average(uRBC)) ∗ 100 […]
The DMSO samples were also used to assess growth of parasite in the presence of 0.25 and 2.5 mM GlcN (normalised by DMSO in 0 mM GlcN).
Egress, invasion & recovery assay. To measure egress, invasion and follow up recovery in the presence of different compounds, we adapted the method developed in6, using Hyp1-Nluc parasites7. These parasites episomally express the exported PEXEL protein Hyp1 (PF3D7_0113300) tagged with a NanoLuc luciferase (NLuc) and were selected with 2.5 nM WR99210 (Jacobus). Highly synchronised schizonts were obtained using ML10 (LifeArc) and sorbitol synchronisation, and Percoll-purified (the culture was gently layered over 67% Percoll (Cytiva) in RPMI, and centrifuged for 15 min at 1500 g and the schizont layer was collected and washed). In a 96-well plate, […]

With CC(C)(Nc1ccc(Cl)c(S(=O)(=O)N2CCOCC2)c1)C(=O)Nc1ccc(F)c(Cl)c1 [W-991] the inhibition (Plasmodium falciparum, 0 mM GlcN, starting concentration 5 uM, dilution point 9 of 10, read-out: Growth inhibition assay, NORMALISED) was 12.9%, the inhibition (Plasmodium falciparum, 0 mM GlcN, starting concentration 5 uM, dilution point 10 of 10, read-out: Growth inhibition assay, NORMALISED) was 5.95% and the inhibition at 5 µM (Plasmodium falciparum, dilution point 1 of 10, starting concentration 5 uM, read-out: NORMALISED (growth inhibition, LDH absorbance)) was 86.4%. It also gave an inhibition at 5 µM (Plasmodium falciparum, starting concentration 5 uM, dilution point 1 of 10, read-out: Growth inhibition assay, NORMALISED) of 87.6%, an inhibition at 5 µM (Plasmodium falciparum, starting concentration 5 uM, dilution point 2 of 10, read-out: Growth inhibition assay, NORMALISED) of 84.3% and an inhibition at 5 µM (Plasmodium falciparum, starting concentration 5 uM, dilution point 3 of 10, read-out: Growth inhibition assay, NORMALISED) of 66.9%. For the same compound, the inhibition at 5 µM (Plasmodium falciparum, starting concentration 5 uM, dilution point 4 of 10, read-out: Growth inhibition assay, NORMALISED) was 35.9%, the inhibition at 5 µM (Plasmodium falciparum, starting concentration 5 uM, dilution point 6 of 10, read-out: Growth inhibition assay, NORMALISED) was 2.77% and the inhibition at 5 µM (Plasmodium falciparum, starting concentration 5 uM, dilution point 7 of 10, read-out: Growth inhibition assay, NORMALISED) was 9.45%. It also gave an inhibition at 5 µM (Plasmodium falciparum, starting concentration 5 uM, dilution point 8 of 10, read-out: Growth inhibition assay, NORMALISED) of 11.2%, an inhibition at 5 µM (Plasmodium falciparum, starting concentration 5 uM, dilution point 9 of 10, read-out: Growth inhibition assay, NORMALISED) of 16.2% and an inhibition at 5 µM (Plasmodium falciparum, starting concentration 5 uM, dilution point 10 of 10, read-out: Growth inhibition assay, NORMALISED) of 6.13%. The inhibition (Plasmodium falciparum, 2.5 mM GlcN, starting concentration 5 uM, dilution point 1 of 10, read-out: Growth inhibition assay, NORMALISED) was 33.9%, the inhibition (Plasmodium falciparum, 2.5 mM GlcN, starting concentration 5 uM, dilution point 2 of 10, read-out: Growth inhibition assay, NORMALISED) was 33.5% and the inhibition (Plasmodium falciparum, 2.5 mM GlcN, starting concentration 5 uM, dilution point 3 of 10, read-out: Growth inhibition assay, NORMALISED) was 23.8%. It also gave an inhibition (Plasmodium falciparum, 2.5 mM GlcN, starting concentration 5 uM, dilution point 4 of 10, read-out: Growth inhibition assay, NORMALISED) of 10.8%, an inhibition at up to 5 µM (Plasmodium falciparum, 2.5 mM GlcN, starting concentration 5 uM, dilution point 5 of 10, read-out: Growth inhibition assay, NORMALISED) of -13.2% and an inhibition (Plasmodium falciparum, 2.5 mM GlcN, starting concentration 5 uM, dilution point 6 of 10, read-out: Growth inhibition assay, NORMALISED) of -23.5%. For the same compound, the inhibition (Plasmodium falciparum, 2.5 mM GlcN, starting concentration 5 uM, dilution point 7 of 10, read-out: Growth inhibition assay, NORMALISED) was -34.6%, the inhibition (Plasmodium falciparum, 2.5 mM GlcN, starting concentration 5 uM, dilution point 8 of 10, read-out: Growth inhibition assay, NORMALISED) was -22.6% and the inhibition (Plasmodium falciparum, 2.5 mM GlcN, starting concentration 5 uM, dilution point 9 of 10, read-out: Growth inhibition assay, NORMALISED) was -27.3%. The inhibition (Plasmodium falciparum, 2.5 mM GlcN, starting concentration 5 uM, dilution point 10 of 10, read-out: Growth inhibition assay, NORMALISED) was -18.7%, the EC50 (Plasmodium falciparum, read-out: EC50 W-991 (95% confidence interval), Fig 4C, 0 mM GlcN, n = 3) was 623 nM and the EC50 (Plasmodium falciparum, read-out: EC50 W-991 (95% confidence interval), Fig 4C, 0.25 mM GlcN, n = 3) was 336 nM. The EC50 (Plasmodium falciparum, read-out: EC50 W-991 (95% confidence interval), Fig 4C, 2.5 mM GlcN, n = 3) was 85.3 nM and the EC50 (read-out: EC50 W-991 (95% confidence interval), Fig 4C, 0 mM GlcN, n = 3) was 623 nM.

From publication PMC11189555, “Aryl amino acetamides prevent Plasmodium falciparum ring development via targeting the lipid-transfer protein PfSTART1” (Nature Communications, 2024)
